Test results taken from the NIST ThermoML archive (doi:10.1016/j.jct.2006.03.021).

Assay: molar heat capacity at constant pressure
Conditions: 101.33 kPa, Crystal, Vacuum adiabatic calorimetry

O.OC[C@H]1O[C@@H](O[C@H]2O[C@H](CO)[C@@H](O)[C@H](O)[C@H]2O)[C@H](O)[C@@H](O)[C@@H]1O [α,β-trehalose monohydrate]
Conditions	molar heat capacity at constant pressure [J/K/mol]
12.15 K	6.701
12.87 K	6.35
13.89 K	7.774
15 K	9.56
15.06 K	9.688
16.13 K	11.54
17.15 K	13.35
18.14 K	15.21
19.1 K	17.06
20 K	18.85
20.02 K	18.86
20.99 K	20.81
21.98 K	22.87
22.97 K	24.93
23.99 K	27.06
25.09 K	29.37
26.28 K	31.89
27.52 K	34.52
28.79 K	37.22
30 K	39.76
30.14 K	40.07
31.48 K	42.93
32.83 K	45.73
34.23 K	48.62
35.64 K	51.52
37.04 K	54.43
38.44 K	57.19
39.85 K	59.97
40 K	60.3
41.25 K	62.71
42.67 K	65.48
44.14 K	68.28
45.66 K	71.1
47.22 K	74
48.83 K	76.91
50 K	78.98
50.46 K	79.86
52.14 K	82.8
53.84 K	85.77
55.55 K	88.73
56.47 K	90.18
58.33 K	93.36
60 K	96.14
60.17 K	96.48
62 K	99.53
63.81 K	102.56
65.62 K	105.58
67.43 K	108.53
69.25 K	111.51
70 K	112.73
71.08 K	114.46
72.92 K	117.44
74.76 K	120.43
76.6 K	123.41
78.42 K	126.41
80 K	128.94
80.24 K	129.3
82.05 K	132.24
83.88 K	135.15
85.74 K	138.11
87.62 K	141.12
89.52 K	144.11
90 K	144.87
91.42 K	147.15
93.33 K	150.17
95.28 K	153.24
97.28 K	156.4
99.29 K	159.5
100 K	160.59
101.26 K	162.58
103.21 K	165.61
105.12 K	168.61
107.01 K	171.53
108.87 K	174.41
110 K	176.15
110.71 K	177.24
112.52 K	180.05
114.31 K	182.82
116.08 K	185.5
117.84 K	188.16
119.57 K	190.8
120 K	191.54
121.29 K	193.41
122.99 K	196.08
124.68 K	198.72
126.4 K	201.25
128.14 K	203.9
129.89 K	206.59
130 K	206.76
131.7 K	209.4
133.54 K	212.03
135.4 K	214.95
137.31 K	217.83
139.29 K	220.87
140 K	221.8
141.32 K	223.89
